PubChem BioAssay AID328 (DTP/NCI, 2004)
“And” between values parts separate entries of the source, which are not always exact repeats. Equal entries are not always repeated. Toxic doses and inconclusive results are not listed.

Tested on: BDF1 mice, P388 leukemia ip, median survival T/C
Assay: NCI In Vivo Anticancer Drug Screen. Data for tumor model P388 Leukemia (intraperitoneal) in B6D2F1 (BDF1) mice
Details: endpoint: median survival time, higher = longer survival
In short: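 Survival ratio, drug arm over vehicle arm, in mice with a transplanted tumour.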

[1] = dose: 12.5 mg/kg/injection, schedule: Q01DX009 (ip), vehicle: saline
[2] = dose: 25.0 mg/kg/injection, schedule: Q01DX009 (ip), vehicle: saline
[3] = dose: 50.0 mg/kg/injection, schedule: Q01DX009 (ip), vehicle: saline
[4] = dose: 100.0 mg/kg/injection, schedule: Q01DX009 (ip), vehicle: saline
[5] = dose: 6.25 mg/kg/injection, schedule: Q01DX009 (ip), vehicle: saline
[6] = dose: 100.0 mg/kg/injection, schedule: Q01DX009 (ip), vehicle: saline with Tween-80
[7] = dose: 200.0 mg/kg/injection, schedule: Q01DX009 (ip), vehicle: saline with Tween-80
[8] = dose: 400.0 mg/kg/injection, schedule: Q01DX009 (ip), vehicle: saline with Tween-80
[9] = dose: 3.13 mg/kg/injection, schedule: Q01DX009 (ip), vehicle: saline

For CC(=O)N(O)c1ccc(Cl)cc1, the T/C (dose: 25.0 mg/kg/injection, schedule: Q04DX002 (ip), vehicle: saline with Tween-80) was 91 % of control and 100 % of control and the T/C (dose: 50.0 mg/kg/injection, schedule: Q04DX002 (ip), vehicle: saline with Tween-80) was 104 % of control and 110 % of control.
With CC(=N\[O-])/C(C)=N/O.CC(=N\[O-])/C(C)=N/O.CCCc1ccncc1.[Cl-].[Cl-].[Rh+3] the T/C [1] was 100 % of control, the T/C [2] was 102 % of control and the T/C [3] was 105 % of control. The T/C [4] was 102 % of control.
CN(C)c1ccc(C(O)C(N)=O)cc1 (centres undefined) was tested, and the T/C [5] was 90 % of control and the T/C [2] was 90 % of control.
In the case of CCCCCC[C@H]([C@H](C)O)n1cnc2c(N)ncnc21, the T/C (dose: 15.0 mg/kg/injection, schedule: Q01DX009 (ip), vehicle: saline) is reported as 105 % of control, the T/C (dose: 22.0 mg/kg/injection, schedule: Q01DX009 (ip), vehicle: saline) is reported as 105 % of control and the T/C (dose: 33.0 mg/kg/injection, schedule: Q01DX009 (ip), vehicle: saline) is reported as 104 % of control. The T/C [3] was 101 % of control.
O=c1[nH]cnc2n[nH]nc12 was tested, and the T/C [6] was 108 % of control, the T/C (dose: 100.0 mg/kg/injection, schedule: Q04DX003 (ip), vehicle: saline with Tween-80) was 104 % of control and the T/C [7] was 124 % of control. For the same molecule, the T/C (dose: 200.0 mg/kg/injection, schedule: Q04DX003 (ip), vehicle: saline with Tween-80) was 113 % of control, the T/C [8] was 100 % of control and the T/C (dose: 400.0 mg/kg/injection, schedule: Q04DX003 (ip), vehicle: saline with Tween-80) was 104 % of control.
With CC(O)CN(CCN(CC(C)O)CC(C)O)CC(C)O.[Cl-].[Co+2] (centres undefined) the T/C [4] was 110 % of control.
CCCCCC(CN(C)C)C(O)/C=C\c1ccccc1 (centres undefined) was tested, and the T/C [9] was 100 % of control, the T/C [5] was 117 % of control and the T/C [1] was 119 % of control. The T/C [3] was 104 % of control and the T/C [4] was 99 % of control.
For COc1cc2ccc3c(c2cc1OC)C(=O)CNC3C (centres undefined), the T/C [9] was 104 % of control, the T/C (dose: 3.13 mg/kg/injection, schedule: Q04DX003 (ip), vehicle: saline) was 109 % of control and the T/C [5] was 100 % of control. For the same molecule, the T/C (dose: 6.25 mg/kg/injection, schedule: Q04DX003 (ip), vehicle: saline) was 100 % of control, the T/C [1] was 100 % of control and the T/C (dose: 12.5 mg/kg/injection, schedule: Q04DX003 (ip), vehicle: saline) was 109 % of control.
CC(=O)OC(c1nc2ccccc2c(=O)n1C1CC2(OC1=O)c1ccccc1N1C(=O)C(C)N(O)C12)C(C)C (centres undefined) was tested, and the T/C (dose: 4.0 mg/kg/injection, schedule: Q01DX009 (ip), vehicle: Klucel (hydroxypropylcellulose) (HPC)) was 93 % of control, the T/C (dose: 8.0 mg/kg/injection, schedule: Q01DX009 (ip), vehicle: Klucel (hydroxypropylcellulose) (HPC)) was 101 % of control and the T/C (dose: 16.0 mg/kg/injection, schedule: Q01DX009 (ip), vehicle: Klucel (hydroxypropylcellulose) (HPC)) was 110 % of control. For the same molecule, the T/C (dose: 32.0 mg/kg/injection, schedule: Q01DX009 (ip), vehicle: Klucel (hydroxypropylcellulose) (HPC)) was 100 % of control.
For CC1(C)N=C(N)N=C(N)N1c1ccc(CCCCc2ccc(S(=O)(=O)F)cc2)cc1, the T/C (dose: 12.0 mg/kg/injection, schedule: Q01DX009 (ip), vehicle: saline) was 150 % of control.
For COc1ccc2c(c1)CCC1CC(=O)C=C21 (centres undefined), the T/C (dose: 100.0 mg/kg/injection, schedule: Q01DX001 (ip), vehicle: saline) was 105 % of control, the T/C (dose: 200.0 mg/kg/injection, schedule: Q01DX001 (ip), vehicle: saline) was 90 % of control and the T/C (dose: 400.0 mg/kg/injection, schedule: Q01DX001 (ip), vehicle: saline) was 100 % of control.
For CN(C)c1ccc(C(O)(Cc2cccc(C#N)c2)c2ccc(N(C)C)cc2)cc1, the T/C (dose: 100.0 mg/kg/injection, schedule: Q04DX002 (ip), vehicle: saline with Tween-80) was 95 % of control, the T/C (dose: 200.0 mg/kg/injection, schedule: Q04DX002 (ip), vehicle: saline with Tween-80) was 89 % of control and the T/C (dose: 400.0 mg/kg/injection, schedule: Q04DX002 (ip), vehicle: saline with Tween-80) was 98 % of control.
C=CCCCCCCCCC(=O)NCc1cccnc1 was tested, and the T/C [6] was 86 % of control, the T/C [7] was 95 % of control and the T/C [8] was 100 % of control.
Cc1ccc(S(=O)(=O)Oc2ccc([N+](=O)[O-])cc2[N+](=O)[O-])cc1 was tested, and the T/C (dose: 25.0 mg/kg/injection, schedule: Q04DX003 (ip), vehicle: saline) was 104 % of control, the T/C (dose: 50.0 mg/kg/injection, schedule: Q04DX003 (ip), vehicle: saline) was 109 % of control and the T/C (dose: 100.0 mg/kg/injection, schedule: Q04DX003 (ip), vehicle: saline) was 109 % of control.
For c1ccc(C23c4ccccc4C(=NC4CCCCC4)C2N3C2CCCCC2)cc1 (centres undefined), the T/C (dose: 100.0 mg/kg/injection, schedule: Q04DX003 (ip), vehicle: Klucel (hydroxypropylcellulose) (HPC)) was 90 % of control and the T/C (dose: 200.0 mg/kg/injection, schedule: Q04DX003 (ip), vehicle: Klucel (hydroxypropylcellulose) (HPC)) was 100 % of control.
